The text below walks through data of patent US5783689A, “Antibacterial and antifungal nucleosides” (University of Notre Dame, priority 1996, dated 1998).

Common to all, as to assay type: cell-based
In assay [1] the test system is E. Coli EC14. Briefly: MIC by agar dilution method. Particulars: Escherichia coli, read-out: Minimum Inhibitory Concentration. From the text: (§1) The following Table 3 lists the minimum inhibitory concentrations obtained by the agar dilution method against Gram-positive and Gram-negative organisms with 5'-O-(valinyl)-5-fluorouridine and comparators ampicillin and 5-FC.
Background: In agar dilution the substance is mixed into plates at graded concentrations.

The subject of assay [2] is Klebsiella X26. As to the kind of experiment: MIC by agar dilution method. Particulars: read-out: Minimum Inhibitory Concentration.
Excerpt: as §1

Assay [3] has as its system Shigella sonnei N9. As to the kind of experiment: MIC by agar dilution method. Particulars: N9, read-out: Minimum Inhibitory Concentration.
Excerpt: as §1

Assay [4] concerns Proteus stu PR33. Briefly: MIC by agar dilution method. To be noted: read-out: Minimum Inhibitory Concentration.
Excerpt: as §1

The subject of assay [5] is Staphylococcus aureus V 41. Briefly: MIC by agar dilution method. To be noted: V41, read-out: Minimum Inhibitory Concentration.
Excerpt: as §1

Assay [6] deals with Pseudomonas PS19. As to the kind of experiment: MIC by agar dilution method.
Excerpt: as §1

Assay [7] concerns E. Coli TEM. As to the kind of experiment: MIC by agar dilution method. Particulars: Escherichia coli, read-out: Minimum Inhibitory Concentration.
Excerpt: as §1

Assay [8] concerns Enterococcus D 2041. Briefly: MIC by agar dilution method. Particulars: D2041, read-out: Minimum Inhibitory Concentration.
Excerpt: as §1

The test system of assay [9] is Salmonella X514. As to the kind of experiment: MIC by agar dilution method. To be noted: read-out: Minimum Inhibitory Concentration.
Excerpt: as §1

Assay [10] deals with Serratia X99. As to the kind of experiment: MIC by agar dilution method. Particulars: read-out: Minimum Inhibitory Concentration.
Excerpt: as §1

The test system of assay [11] is Staphylococcus epidermis 70. Briefly: MIC by agar dilution method. Particulars: read-out: Minimum Inhibitory Concentration.
Excerpt: as §1

Assay [12] has as its system Salmonella 1335. Briefly: MIC by agar dilution method. Particulars: read-out: Minimum Inhibitory Concentration.
Excerpt: as §1

Assay [13] has as its system Enterobacter aerogenes EB17. Briefly: MIC by agar dilution method. Particulars: Klebsiella aerogenes, read-out: Minimum Inhibitory Concentration.
Excerpt: as §1

Assay [14] concerns Proteus rett. C24. Briefly: MIC by agar dilution method. Particulars: read-out: Minimum Inhibitory Concentration.
Excerpt: as §1

Assay [15] deals with Staphylococcus aureus X 1.1. As to the kind of experiment: MIC by agar dilution method. To be noted: X1.1, read-out: Minimum Inhibitory Concentration.
Excerpt: as §1

Assay [16] has as its system Morganella morganii PR15. Briefly: MIC by agar dilution method. Particulars: read-out: Minimum Inhibitory Concentration.
Excerpt: as §1

The subject of assay [17] is Staphylococcus aureus S13E. Briefly: MIC by agar dilution method. To be noted: read-out: Minimum Inhibitory Concentration.
Excerpt: as §1

The subject of assay [18] is Serratia SE3. As to the kind of experiment: MIC by agar dilution method. Particulars: read-out: Minimum Inhibitory Concentration.
Excerpt: as §1

The subject of assay [19] is Enterobacter cloacae EB5. As to the kind of experiment: MIC by agar dilution method. Particulars: read-out: Minimum Inhibitory Concentration.
Excerpt: as §1

Assay [20] has as its system Enterobacter aerogenes C32. As to the kind of experiment: MIC by agar dilution method. To be noted: Klebsiella aerogenes, read-out: Minimum Inhibitory Concentration.
Excerpt: as §1

Assay [21] has as its system Staphylococcus epidermis 222. As to the kind of experiment: MIC by agar dilution method. To be noted: read-out: Minimum Inhibitory Concentration.
Excerpt: as §1

Assay [22] relates to Enterococcus D X66. Briefly: MIC by agar dilution method.
Excerpt: as §1

Assay [23] has as its system Staphylococcus aureus X 400. Briefly: MIC by agar dilution method.
Excerpt: as §1

In assay [24] the test system is Gram-negative microorganisms. As to the kind of experiment: activity against Gram-negative microorganisms. To be noted: compared with Gram-positive bacteria.
Excerpt: as §1

Assay [25] relates to Gram-positive bacteria including the methicillin resistant staphylococci. As to the kind of experiment: in vitro growth inhibition of Gram-positive bacteria including methicillin resistant staphylococci.
Excerpt: as §1

The test system of assay [26] is Streptococcus A C203. As to the kind of experiment: MIC by agar dilution method. Set-up: key: NG: no growth.
Excerpt: as §1

For assay [27], the system named is Streptococcus pn PARK. Briefly: MIC by agar dilution method. To be noted: read-out: Minimum Inhibitory Concentration.
Excerpt: as §1

The subject of assay [28] is Candida albicans. As to the kind of experiment: in vitro test against Candida albicans, zone of inhibition, Lee's medium. Particulars: 37° C. From the text: The test compound of Table 3,5'-O-(valinyl)-5-fluorouridine, was coupled to the triornithyl peptide represented by the formula 2 wherein p is 3 by following the reaction Scheme 1 above and substituting valine for glycine to provide the tetrapeptide of the invention. […] Lee, K. L.; Buckley, H. R.; Campbell, C. C., Saubouraudia, 1975, 13, 148. The tetrapeptide gave a 35 mm diameter zone of inhibition at a concentration of the compound of 25 nmol. while at a concentration of 5 nmol. the zone of inhibition was 26 mm.

Where [29] appears, read: Pseudomonas PS19, agar dilution, read-out: Minimum Inhibitory Concentration.
Where [30] appears, read: DX66, Enterococcus D X66, agar dilution, read-out: Minimum Inhibitory Concentration.
The mark [31] stands for this setting: X400, Staphylococcus aureus X 400, agar dilution, read-out: Minimum Inhibitory Concentration.

≈ marks a conversion by molar mass, not a printed value. Read-outs that look alike come from different tables or passages of the source. Where a SMILES comes first, the peptide text is derived from it. [ ]: non-standard residue; d: D form. The star is where a group is joined. X1 = O=c1[nH]c(=O)n([C@@H]2O[C@H](CO*)[C@@H](O)[C@H]2O)cc1F; Orn(N5-OH,N5-Ac) = CC(=O)N(O)CCC[C@H](N)C(=O)O

For `CC1(C)S[C@@H]2[C@H](NC(=O)[C@H](N)c3ccccc3)C(=O)N2[C@H]1C(=O)O` [Ampicillin], the MIC in assay [1] (E. Coli EC14, agar dilution) was found to be 0.06 µg/mL (≈ 0.172 µM); in [2], 0.008 µg/mL (≈ 0.0229 µM); in [3], 0.6 µg/mL (≈ 1.72 µM); in assay [4], 0.06 µg/mL (≈ 0.172 µM); in assay [5], 4 µg/mL (≈ 11.4 µM); in assay [6] (setting [29]), 32 µg/mL (≈ 91.6 µM). The MIC in [7] is 0.03 µg/mL (≈ 0.0859 µM); in assay [8] it was 1 µg/mL (≈ 2.86 µM); in assay [9], 0.06 µg/mL (≈ 0.172 µM); in assay [10], 0.25 µg/mL (≈ 0.715 µM); in assay [11] it was 8 µg/mL (≈ 22.9 µM); in [12], 0.125 µg/mL (≈ 0.358 µM). Moreover, the MIC in assay [13] was 0.06 µg/mL (≈ 0.172 µM); in assay [14], 0.06 µg/mL (≈ 0.172 µM); in assay [15], 2 µg/mL (≈ 5.72 µM); in [16] it was 1 µg/mL (≈ 2.86 µM); in assay [17], 128 µg/mL (≈ 366 µM); in assay [18], 0.5 µg/mL (≈ 1.43 µM). The MIC in assay [19] worked out at 0.25 µg/mL (≈ 0.715 µM); in [20] it was 0.5 µg/mL (≈ 1.43 µM); in assay [21] it was 2 µg/mL (≈ 5.72 µM); in assay [22] (Enterococcus, DX66, read-out: Minimum Inhibitory Concentration), 128 µg/mL (≈ 366 µM); in assay [23] (Staphylococcus aureus, X400, read-out: Minimum Inhibitory Concentration), 128 µg/mL (≈ 366 µM).

On to `Nc1nc(=O)n([C@@H]2O[C@H](CO)[C@@H](O)[C@H]2O)cc1F` [Example 5-FC, 5-fluorocytidine], for which the MIC in assay [1] was greater than 128 µg/mL; in assay [5] it was 8 µg/mL (≈ 30.6 µM); in assay [6] (Pseudomonas, PS19, read-out: Minimum Inhibitory Concentration), greater than 128 µg/mL; in assay [8], 4 µg/mL (≈ 15.3 µM); in assay [11] it was 16 µg/mL (≈ 61.3 µM); in assay [15], 8 µg/mL (≈ 30.6 µM). For the same molecule, the MIC in assay [17] was found to be 2 µg/mL (≈ 7.66 µM); in assay [21] it was 16 µg/mL (≈ 61.3 µM); in [22] (setting [30]) it was 0.25 µg/mL (≈ 0.957 µM); in assay [23] (setting [31]), 8 µg/mL (≈ 30.6 µM).

Consider `CC(C)[C@H](N)C(=O)OC[C@H]1O[C@@H](n2cc(F)c(=O)[nH]c2=O)[C@H](O)[C@@H]1O` [Test Compd, 5'-O-(L-valinyl)-5-fluorouridine], for which, in [24], the “activity against Gram-negative microorganisms (in words)” value is reported as “also active against Gram-negative microorganisms but to a lesser degree”. Further, the “growth inhibition of Gram-positive bacteria / methicillin-resistant staphylococcus (in words)” value is recorded as “inhibited the in vitro growth of Gram-positive bacteria including the methicillin resistant staphylococci” in [25] and “inhibits the growth of methicillin-resistant staphylococcus” in [25] (listed as 5'-O-(valinyl)-5-fluorouridine). In [26], the “Minimum Inhibitory Concentration” value is reported as “NG”. Moreover, the MIC in [1] (E. Coli EC14, agar dilution) was 128 µg/mL (≈ 354 µM); in [2], 32 µg/mL (≈ 88.6 µM); in assay [3], 64 µg/mL (≈ 177 µM); in assay [4] it was 32 µg/mL (≈ 88.6 µM); in assay [5], 0.25 µg/mL (≈ 0.692 µM); in assay [6] (setting [29]) it was 128 µg/mL (≈ 354 µM). Moreover, the MIC in assay [7] is 16 µg/mL (≈ 44.3 µM); in [8], 2 µg/mL (≈ 5.54 µM); in [9] it was 32 µg/mL (≈ 88.6 µM); in assay [10] it was 16 µg/mL (≈ 44.3 µM); in assay [11], 0.03 µg/mL (≈ 0.083 µM); in assay [12], 32 µg/mL (≈ 88.6 µM). The MIC in [13] was determined as 64 µg/mL (≈ 177 µM); in [14], 16 µg/mL (≈ 44.3 µM); in assay [27], 128 µg/mL (≈ 354 µM); in assay [15], 0.5 µg/mL (≈ 1.38 µM); in [16] it was 8 µg/mL (≈ 22.1 µM); in assay [17], 0.125 µg/mL (≈ 0.346 µM). Moreover, the MIC in assay [18] came out at 16 µg/mL (≈ 44.3 µM); in assay [19], 32 µg/mL (≈ 88.6 µM); in assay [20], 64 µg/mL (≈ 177 µM); in assay [21], 1 µg/mL (≈ 2.77 µM); in assay [22] (setting [30]) it was 32 µg/mL (≈ 88.6 µM); in assay [23] (setting [31]), 0.25 µg/mL (≈ 0.692 µM).

On to `CC(=O)N(O)CCC[C@H](NC(=O)[C@H](CCCN(O)C(C)=O)NC(=O)[C@@H](N)CCCN(O)C(C)=O)C(=O)N[C@H](C(=O)OC[C@H]1O[C@@H](n2cc(F)c(=O)[nH]c2=O)[C@H](O)[C@@H]1O)C(C)C` [tetrapeptide] (H-[Orn(N5-OH,N5-Ac)][Orn(N5-OH,N5-Ac)][Orn(N5-OH,N5-Ac)]V-X1), for which the figures for the “diameter zone of inhibition” value in assay [28] (5 nmol) and in assay [28] (25 nmol) were 26 mm and 35 mm, respectively. Further, in assay [28] (in vitro), the “activity against Candida albicans (in words)” value is “exhibited activity against Candida albicans”.
